From patent US20120328525A1, “NANOPARTICLE COMPOSITIONS AND COMPONENTS THEREOF” (priority 2011, published 2012)

Test system: axillary sweating
Experiment: Placebo-controlled blinded clinical study, gravimetric sweat measurement (Examples 5-10)
Type: in vivo, human
Settings: for percent of subjects with at least a 30% reduction in sweat production vs Baseline / average reduction in sweat production by gravimetric sweat measurement: two weeks after single topical treatment; for average reduction in sweat production by gravimetric sweat measurement: 0.3 mL/axilla; for greater reduction in sweat production than control (placebo) group / greater effectiveness in reducing sweat production than placebo (responder rate): two weeks after treatment; for greater reduction in sweat production than control (placebo) group: placebo 53 mg; for greater effectiveness in reducing sweat production than placebo (responder rate): placebo 29% responders
From the text: (§1) The purpose of the study was to determine if Emulsion H is biologically active in reducing sweating. […] Some subjects received treatment with the potentially biologically active formulation and some subjects received treatment with a placebo, i.e. water. Neither the subject nor the investigator knew which treatment the subject was receiving.
Two weeks after a single treatment, subjects were re-assessed by gravimetric sweat measurement to determine the degree of sweat reduction. A comparison of post-treatment sweat production between the treatment groups was made to determine the degree of sweat reduction by the potentially biologically active formulation.
The sweat production of the subject is measured gravimetrically by the following procedure: • The subject was placed in a room with relatively constant temperature and humidity for at least 30 min. • The subject was placed in a semi-reclining position with the axilla fully exposed and the arm resting comfortably above the head. • The subject's axilla was dried gently with a cotton gauze pad. • The investigator used a forceps to place one filter paper (90 mm diameter) on a balance sensitive to 0.1 mg and recorded its weight. • The investigator used a forceps to place the measured filter paper on the axilla, covered it with plastic and taped the edges of the bag against the subject's skin with hypoallergenic tape to form a seal around the plastic bag. • After 5 minutes, the investigator gently removed the tape and plastic from the subject's axilla and then, using forceps, immediately placed the filter paper onto the scale to record its weight. The scale was then dried and zero balanced. • This measurement was then repeated as described above with the other axilla.
If the subject was eligible for treatment on this basis, the subject was then treated. For treatment, one of the study preparations (0.3 mL/axilla) was applied topically with a gloved finger by the investigator to the subject's skin of the axilla. Emulsion H contained 19.2 mg Labrafac Lipophile WL 1349 and 28.8 mg Polysorbate 80, NF, in addition to 0.9% Sodium Chloride Irrigation, USP, and Gelatin Phosphate Buffer. The average diameter (e.g., particle size) of nanoparticles contained in the Emusion H empty nanoparticle composition was approximately 80.1 nm. The preparation was administered in small increments to avoid run-off. The liquid was rubbed-in until vanished.
The subject was scheduled for a follow-up office visit two weeks after the treatment. At the follow-up office visit, the subject was questioned as to their compliance with the instructions regarding which medications not to use between treatment and the two week follow-up office visit. If the subject was non-compliant, the subject was disqualified from the study. If the subject was compliant, the subject was re-assessed using the gravimetric sweat measurement procedure.
as §1, with “V” for “H”
If the subject was eligible for treatment on this basis, the subject was then treated. For treatment, one of the study preparations (0.3 mL/axilla) was applied topically with a gloved finger by the investigator to the subject's skin of the axilla. Emulsion V contained Emulsifying Wax, Gelatin Phosphate Buffer Solution, Isopropyl Myristate, Labrafac Lipophile, Methylparaben, Mineral Oil Heavy Viscosity Range, Polysorbate 80, Propylparaben, Purified Water, Sodium Chloride Injection, and White Petrolatum. All ingredients are either NF or USP grade. The average diameter (e.g., particle size) of nanoparticles contained in the Emusion V empty nanoparticle composition was approximately 77.1 nm. The preparation was administered in small increments to avoid run-off. […]

Compound	percent of subjects with at least a 30% reduction in sweat production vs Baseline	average reduction in sweat production by gravimetric sweat measurement	greater reduction in sweat production than control (placebo) group	greater effectiveness in reducing sweat production than placebo (responder rate)
CCCCCCCCCCCCCC(=O)OC(C)C [Isopropyl Myristate]	55%	103 mg	195%	191%
CCCOC(=O)c1ccc(O)cc1 [Propylparaben]	70%	177 mg	337%	245%
Polysorbate 80	80%	159 mg	300%	280%
